According to patent US7816074B2, “α4 β2 δGABA-A receptors as a strategy for PMS and alcoholism” (priority 2003, dated 2010):

Biological target: T1, α1β2 receptors (Rattus norvegicus, UniProt P62813+P63138)
T1 construct: expressed in transfected cells; host or cells: oocytes injected with cRNA (Xenopus laevis is named only)
Assay: Two-electrode voltage-clamp of recombinant GABAA receptors in oocytes
Type: cell-based, expressed in Xenopus laevis oocytes
Settings: oocytes injected with α1+β2
Excerpt: Plasmids with inserts encoding GABAA receptor subunit sequence for rat α1 (62), rat β2 (83), rat α2 (62), rat α5 (62), mouse α4 (37), mouse β3 (82), rat β1 (83), rat γ2S (63), human δ (12), and human ε (11) were produced by subcloning each separately into an appropriate cloning vehicle such as PCDM8, pCDNA3.1 or pGHEMHE vectors (Invitrogen, Carlsbad Calif.) using a T7 promoter and standard subcloning techniques (59). Plasmids were linearized with an appropriate restriction enzyme at a site 3′ to the insert and cRNAs were synthesized using T3 or T7 polymerase (mMessage mMachine, Ambion, Tex.). The size of the cRNA was verified and RNA was quantified by ethidium bromide staining after electrophoresis on 1% agarose gels.
The preparation, injection, and maintenance of oocytes were carried out as described previously (78). […]
Voltage-clamp recording was carried out 1 to 3 days after injection of cRNAs. […] Oocytes were voltage-clamped at −70 mV and macroscopic currents were recorded with a two-electrode voltage-clamp using a Warner Instruments OC-725 amplifier as described previously (79). Currents were recorded on a chart recorder or by using Axograph on a Macintosh computer. […]

T1 sequence (P62813 28-455): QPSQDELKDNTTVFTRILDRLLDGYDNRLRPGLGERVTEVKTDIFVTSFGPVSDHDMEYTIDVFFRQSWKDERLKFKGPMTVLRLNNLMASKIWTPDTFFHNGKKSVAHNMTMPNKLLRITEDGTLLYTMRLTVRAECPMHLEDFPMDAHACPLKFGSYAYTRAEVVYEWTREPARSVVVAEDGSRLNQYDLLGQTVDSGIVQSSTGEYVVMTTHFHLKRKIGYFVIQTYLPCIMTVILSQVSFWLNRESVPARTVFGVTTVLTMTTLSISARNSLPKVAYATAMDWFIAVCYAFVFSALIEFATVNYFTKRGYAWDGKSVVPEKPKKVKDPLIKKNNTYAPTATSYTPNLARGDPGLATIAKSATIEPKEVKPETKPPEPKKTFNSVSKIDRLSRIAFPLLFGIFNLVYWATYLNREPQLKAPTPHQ
T1 sequence (P63138 25-474 limits assumed): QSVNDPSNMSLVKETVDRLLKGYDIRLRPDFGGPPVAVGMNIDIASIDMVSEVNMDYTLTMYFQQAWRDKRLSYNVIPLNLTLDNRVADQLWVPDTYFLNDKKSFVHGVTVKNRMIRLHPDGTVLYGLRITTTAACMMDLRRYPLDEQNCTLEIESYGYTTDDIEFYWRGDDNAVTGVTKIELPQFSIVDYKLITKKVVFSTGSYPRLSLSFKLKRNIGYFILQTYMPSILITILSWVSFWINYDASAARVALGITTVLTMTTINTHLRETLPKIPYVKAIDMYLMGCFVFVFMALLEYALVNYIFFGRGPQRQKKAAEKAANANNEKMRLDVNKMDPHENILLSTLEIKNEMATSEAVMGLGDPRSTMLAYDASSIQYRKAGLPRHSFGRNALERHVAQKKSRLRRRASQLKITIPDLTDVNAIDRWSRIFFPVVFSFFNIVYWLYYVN

Question: For `CCO` [ethanol], which “responses to GABA in presence of alcohol, % of control” value is on record?
Answer: 88-95 % of control
